This note sets out measurements from patent publication US20130040935A1, “CYCLIC KETO-ENOLS FOR THERAPY” (BAYER INTELLECTUAL PROPERTY GMBH, priority 2010, published 2013).

Where two headings read alike, the source gives them in different places.

The target in one assay is recombinant human ACC1 (Homo sapiens, UniProt Q13085). The assay can be described thus: Human ACC1 enzyme assay, Assay A1 (HTRF ADP immunoassay).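 Note: ADP generated by the enzyme quantified via competitive time-resolved FRET, read as europium cryptate to d2 energy transfer after 1 h at 22 °C with labelled ADP tracer and anti-ADP antibody.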
In assay [1] the target is T1, human ACC1 (acetyl-coenzyme A carboxylase alpha transcript variant 1) (Homo sapiens, UniProt Q13085).
T1 construct: FLAG (C); made in house; host or cells: baculovirus-infected insect cells (Hi5)
The assay can be described thus: Human ACC1 enzyme assay, Assay B1 (ADP-Glo). Format: biochemical. For orientation: ADP-Glo first removes unused ATP, then detects ADP through luciferase.

The target in assay [2] is human ACC2 (acetyl-coenzyme A carboxylase 2) (Homo sapiens, UniProt O00763). The assay can be described thus: Human ACC2 enzyme assay, Assay B2 (ADP-Glo).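 Note: human ACC2 activity read as ADP product, detected by luciferase glow luminescence after residual ATP removal, enzyme near 2 ng/µl in linear range, detection steps at 22 °C.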
human ACC2 (acetyl-coenzyme A carboxylase 2), sequence (O00763 27-2458 limits assumed): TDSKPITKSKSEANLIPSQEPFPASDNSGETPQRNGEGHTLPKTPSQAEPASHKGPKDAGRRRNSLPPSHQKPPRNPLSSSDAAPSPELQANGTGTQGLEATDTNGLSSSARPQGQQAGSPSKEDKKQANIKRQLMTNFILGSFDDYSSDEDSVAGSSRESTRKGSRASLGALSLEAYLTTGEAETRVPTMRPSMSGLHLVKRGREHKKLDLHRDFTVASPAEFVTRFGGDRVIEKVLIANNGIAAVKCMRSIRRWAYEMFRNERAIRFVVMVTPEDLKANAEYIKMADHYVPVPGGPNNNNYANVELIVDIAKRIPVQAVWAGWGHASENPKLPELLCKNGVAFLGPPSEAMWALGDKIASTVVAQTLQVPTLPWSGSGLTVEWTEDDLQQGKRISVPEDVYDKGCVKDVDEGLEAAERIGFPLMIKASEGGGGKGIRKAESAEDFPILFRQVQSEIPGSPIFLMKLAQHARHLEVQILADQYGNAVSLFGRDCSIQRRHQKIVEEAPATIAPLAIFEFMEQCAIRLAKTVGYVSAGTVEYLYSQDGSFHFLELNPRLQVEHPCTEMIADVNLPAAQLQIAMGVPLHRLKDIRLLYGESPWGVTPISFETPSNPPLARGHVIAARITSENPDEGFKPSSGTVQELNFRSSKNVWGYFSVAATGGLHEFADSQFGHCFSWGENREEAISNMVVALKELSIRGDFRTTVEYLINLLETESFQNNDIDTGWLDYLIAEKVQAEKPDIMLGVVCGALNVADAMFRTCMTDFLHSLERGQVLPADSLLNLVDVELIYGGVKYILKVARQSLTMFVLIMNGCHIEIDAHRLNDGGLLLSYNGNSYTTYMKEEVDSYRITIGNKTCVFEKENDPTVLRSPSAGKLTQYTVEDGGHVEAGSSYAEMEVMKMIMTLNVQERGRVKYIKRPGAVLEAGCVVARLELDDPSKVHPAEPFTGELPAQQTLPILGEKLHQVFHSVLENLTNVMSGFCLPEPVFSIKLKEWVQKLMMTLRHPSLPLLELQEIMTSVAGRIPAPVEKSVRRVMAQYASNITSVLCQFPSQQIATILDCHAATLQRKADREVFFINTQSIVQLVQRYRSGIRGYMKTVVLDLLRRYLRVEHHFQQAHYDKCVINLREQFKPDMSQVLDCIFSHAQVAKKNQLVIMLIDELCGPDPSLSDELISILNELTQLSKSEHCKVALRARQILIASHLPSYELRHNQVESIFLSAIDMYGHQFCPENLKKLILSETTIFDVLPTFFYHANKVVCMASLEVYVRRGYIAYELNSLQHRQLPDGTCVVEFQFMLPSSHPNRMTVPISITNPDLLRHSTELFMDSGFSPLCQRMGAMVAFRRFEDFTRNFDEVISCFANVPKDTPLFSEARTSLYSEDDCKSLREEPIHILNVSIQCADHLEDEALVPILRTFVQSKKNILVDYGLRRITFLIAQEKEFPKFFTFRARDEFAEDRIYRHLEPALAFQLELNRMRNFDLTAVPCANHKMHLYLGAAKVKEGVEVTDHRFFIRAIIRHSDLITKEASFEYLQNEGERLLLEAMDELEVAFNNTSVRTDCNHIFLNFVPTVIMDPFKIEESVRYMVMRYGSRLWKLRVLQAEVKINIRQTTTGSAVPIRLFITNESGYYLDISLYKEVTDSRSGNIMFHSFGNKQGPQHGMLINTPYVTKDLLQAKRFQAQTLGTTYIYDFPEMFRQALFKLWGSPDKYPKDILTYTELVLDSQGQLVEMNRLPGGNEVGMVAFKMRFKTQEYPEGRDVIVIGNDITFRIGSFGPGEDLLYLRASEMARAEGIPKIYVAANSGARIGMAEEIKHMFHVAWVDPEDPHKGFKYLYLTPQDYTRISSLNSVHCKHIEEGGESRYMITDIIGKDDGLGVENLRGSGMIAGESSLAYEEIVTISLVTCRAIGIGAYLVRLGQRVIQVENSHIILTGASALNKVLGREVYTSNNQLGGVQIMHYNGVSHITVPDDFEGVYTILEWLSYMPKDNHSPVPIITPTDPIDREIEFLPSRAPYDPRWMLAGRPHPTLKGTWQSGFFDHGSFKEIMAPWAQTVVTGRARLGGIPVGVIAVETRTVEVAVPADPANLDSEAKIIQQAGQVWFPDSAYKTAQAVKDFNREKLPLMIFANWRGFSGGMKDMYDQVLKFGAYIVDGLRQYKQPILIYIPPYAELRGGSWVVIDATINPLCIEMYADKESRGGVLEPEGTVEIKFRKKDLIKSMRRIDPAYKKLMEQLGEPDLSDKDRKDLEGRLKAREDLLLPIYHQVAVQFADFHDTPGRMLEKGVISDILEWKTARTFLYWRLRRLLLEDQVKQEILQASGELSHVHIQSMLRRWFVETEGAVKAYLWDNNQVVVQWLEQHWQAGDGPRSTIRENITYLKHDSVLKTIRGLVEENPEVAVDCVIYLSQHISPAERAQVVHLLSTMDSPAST
Assay [3] has as its target acetyl-CoA carboxylase 2 (ACC2) (Homo sapiens, UniProt O00763). The assay is described as follows: Human ACC2 enzyme assay, Assay A2 (HTRF ADP immunoassay).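 Note: ADP generated by ACC2 quantified via competitive time-resolved FRET between europium cryptate anti-ADP antibody and d2-tagged ADP, enzyme kept in linear range near 0.6 ng/µl.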
Protocol: The inhibitory activity of the substances of this invention with regard to acetyl-CoA carboxylase 2 (ACC2) was measured using the ACC2 assay described in the paragraphs below. The basic principle of the assay is the measurement of adenosine diphosphate (ADP), which is formed as a by-product, by means of an HTRF®-based competitive immunoassay (HTRF=Homogeneous Time Resolved Fluorescence).
The amount of complex of d2-labelled ADP and europium cryptate-labelled anti-ADP antibody was then determined by measuring the resonance energy transfer of europium cryptate to d2.
The next assay has as its system MCF7. The assay can be described thus: Cell proliferation assay (CellTiter-Glo, 96 h), MCF7. In kind it is cell-based. The settings on record: Homo sapiens, MCF7; Table 7; 96-hour incubation. A digest of the protocol:
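Growth inhibition in percent was based on luminescence differences between treated and control samples after subtracting baseline readings taken at t=0. Cells had been incubated with compound for 96 hours at 37° C. following overnight plating.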
Background: Cellular ATP, detected with luciferase, serves as a proxy for viable cell number.

Where [4] appears, read: Assay B1, read-out: ACC 1 (=B1) IC50.

acetyl-CoA carboxylase 2 (ACC2), sequence (O00763 39-2458 limits assumed): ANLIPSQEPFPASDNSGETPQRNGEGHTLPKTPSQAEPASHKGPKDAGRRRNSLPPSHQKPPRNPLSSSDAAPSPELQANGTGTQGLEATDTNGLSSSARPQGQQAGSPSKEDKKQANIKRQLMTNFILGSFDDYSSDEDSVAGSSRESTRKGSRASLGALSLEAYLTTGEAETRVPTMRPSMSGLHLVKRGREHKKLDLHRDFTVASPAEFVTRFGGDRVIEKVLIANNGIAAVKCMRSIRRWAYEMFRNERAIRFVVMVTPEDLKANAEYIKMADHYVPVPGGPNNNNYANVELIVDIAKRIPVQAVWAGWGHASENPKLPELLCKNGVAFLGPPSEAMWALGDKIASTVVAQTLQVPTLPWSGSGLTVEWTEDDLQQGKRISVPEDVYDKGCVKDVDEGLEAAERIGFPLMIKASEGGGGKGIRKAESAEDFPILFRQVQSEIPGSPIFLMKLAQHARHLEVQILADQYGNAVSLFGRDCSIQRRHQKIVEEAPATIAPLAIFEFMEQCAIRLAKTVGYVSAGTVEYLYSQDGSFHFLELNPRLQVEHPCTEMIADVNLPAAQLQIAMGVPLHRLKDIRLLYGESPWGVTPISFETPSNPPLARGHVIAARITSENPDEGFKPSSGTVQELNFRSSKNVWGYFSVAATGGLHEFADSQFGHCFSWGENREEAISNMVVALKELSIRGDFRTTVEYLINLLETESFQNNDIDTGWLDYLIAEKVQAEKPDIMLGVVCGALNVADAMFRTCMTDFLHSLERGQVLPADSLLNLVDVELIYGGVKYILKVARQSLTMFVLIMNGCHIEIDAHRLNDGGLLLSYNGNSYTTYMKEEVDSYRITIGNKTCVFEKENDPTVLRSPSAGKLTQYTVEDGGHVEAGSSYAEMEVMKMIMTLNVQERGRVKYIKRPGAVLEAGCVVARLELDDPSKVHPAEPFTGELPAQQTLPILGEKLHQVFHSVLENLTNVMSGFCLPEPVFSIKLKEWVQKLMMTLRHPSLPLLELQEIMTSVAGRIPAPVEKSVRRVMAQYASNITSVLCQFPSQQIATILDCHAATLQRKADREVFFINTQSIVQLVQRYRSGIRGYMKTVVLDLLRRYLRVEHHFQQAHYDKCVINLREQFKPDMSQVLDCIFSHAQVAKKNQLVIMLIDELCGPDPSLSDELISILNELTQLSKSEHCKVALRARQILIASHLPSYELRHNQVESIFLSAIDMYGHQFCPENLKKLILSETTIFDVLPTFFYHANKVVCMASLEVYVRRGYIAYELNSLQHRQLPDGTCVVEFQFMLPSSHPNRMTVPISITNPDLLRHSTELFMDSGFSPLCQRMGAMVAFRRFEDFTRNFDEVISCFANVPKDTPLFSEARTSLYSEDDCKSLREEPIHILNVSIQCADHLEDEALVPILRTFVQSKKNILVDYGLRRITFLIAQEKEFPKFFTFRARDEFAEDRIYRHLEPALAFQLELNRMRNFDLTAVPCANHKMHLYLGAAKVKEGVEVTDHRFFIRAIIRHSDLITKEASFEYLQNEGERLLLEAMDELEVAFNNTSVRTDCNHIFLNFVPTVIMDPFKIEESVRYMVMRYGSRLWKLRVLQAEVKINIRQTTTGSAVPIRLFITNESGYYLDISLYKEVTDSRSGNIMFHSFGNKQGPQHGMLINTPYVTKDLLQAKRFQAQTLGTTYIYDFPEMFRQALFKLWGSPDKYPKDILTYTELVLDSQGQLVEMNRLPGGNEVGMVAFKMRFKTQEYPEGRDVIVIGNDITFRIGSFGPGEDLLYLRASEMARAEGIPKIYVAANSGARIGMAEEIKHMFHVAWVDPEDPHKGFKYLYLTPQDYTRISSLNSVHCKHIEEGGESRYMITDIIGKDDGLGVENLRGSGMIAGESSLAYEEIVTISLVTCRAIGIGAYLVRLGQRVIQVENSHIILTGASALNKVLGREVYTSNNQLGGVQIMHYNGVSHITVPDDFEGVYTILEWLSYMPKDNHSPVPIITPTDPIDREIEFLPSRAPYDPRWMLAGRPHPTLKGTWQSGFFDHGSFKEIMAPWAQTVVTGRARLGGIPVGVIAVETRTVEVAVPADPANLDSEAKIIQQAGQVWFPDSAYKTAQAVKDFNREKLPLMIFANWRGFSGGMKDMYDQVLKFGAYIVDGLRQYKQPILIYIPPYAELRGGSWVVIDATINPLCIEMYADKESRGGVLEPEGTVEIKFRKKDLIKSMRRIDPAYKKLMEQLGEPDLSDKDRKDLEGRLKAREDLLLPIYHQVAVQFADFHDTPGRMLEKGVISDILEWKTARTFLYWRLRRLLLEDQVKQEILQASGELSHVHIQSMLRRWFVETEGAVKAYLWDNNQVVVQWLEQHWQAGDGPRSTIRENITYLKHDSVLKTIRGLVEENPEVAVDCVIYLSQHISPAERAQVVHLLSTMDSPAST

The term IC50 denotes the concentration needed to halve the response being measured. For the molecule `COC[C@H]1CC[C@]2(CC1)NC(=O)C(c1cc(-c3ccc(Cl)c(F)c3)ccc1C)=C2O` [1-111, (5s,8s)-3-(4′-Chloro-3′-fluoro-4-methylbiphenyl-3-yl)-4-hydroxy-8-(methoxymethyl)-1-azaspiro[4.5]dec-3-en-2-one], the IC50 on recombinant human ACC1 amounted to 177 nM; in assay [1] (setting [4]), 126 nM; in assay [2] it was 1120 nM; in assay [3] it was 592 nM; in the assay with MCF7 it was 194 nM.
The like results for `Cc1ccc(-c2ccc(Cl)c(F)c2)cc1C1=C(O)[C@]2(CC[C@](O)(C(F)(F)C(F)(F)F)CC2)NC1=O` [1-130, (5r,8r)-3-(4′-Chloro-3′-fluoro-4-methylbiphenyl-3-yl)-4,8-dihydroxy-8-(pentafluoroethyl)-1-azaspiro[4.5]dec-3-en-2-one] were, in that order, 133 nM, 108 nM, 5890 nM, 4400 nM and 61 nM.
Take `Cc1cc(C)c(-c2ccc(Cl)cc2)cc1C1=C(O)C2(CCC(C(F)(F)F)CC2)NC1=O` (stereo not shown) [1-97, 3-(4′-Chloro-4,6-dimethylbiphenyl-3-yl)-4-hydroxy-8 (trifluoromethyl)-1-azaspiro[4.5]dec-3-en-2-one]: the IC50 at recombinant human ACC1 was found to be 1940 nM; in assay [1], 1110 nM; in assay [2], 269 nM; in assay [3], 138 nM; in the assay on MCF7, 155 nM.
In the case of `Cc1ccc(-c2ccc(Cl)cc2)cc1C1=C(O)[C@]2(CC[C@H](C(F)(F)F)CC2)NC1=O` [1-119, (5s,8s)-3-(4′-Chloro-4 methylbiphenyl-3-yl)-4-hydroxy-8-(trifluoromethyl)-1-azaspiro[4.5]dec-3-en-2-one], the IC50 on recombinant human ACC1 came out at 203 nM; in assay [1] (setting [4]) it was 110 nM; in assay [2], 1080 nM; in assay [3], 479 nM; in the assay with MCF7, 37 nM.
Take `CO[C@H]1CC[C@]2(CC1)NC(=O)C(c1cc(-c3ccc(Cl)c(F)c3)cc(F)c1C)=C2O` [1-105, (5s,8s)-3-(4′-Chloro-3′,5-difluoro-4-methylbiphenyl-3-yl)-4-hydroxy-8-methoxy-1-azaspiro[4.5]dec-3-en-2-one]: the IC50 worked out at 360 nM at recombinant human ACC1; 165 nM in assay [1]; 8940 nM in assay [2]; 5560 nM in assay [3]; 106 nM in the assay with MCF7.
On to `Cc1ccc(-c2ccc(F)c(F)c2)cc1C1=C(O)C2(CCCCC2)NC1=O` [1-115, 3-(3′,4′-Difluoro-4-methylbiphenyl-3-yl)-4-hydroxy-1-azaspiro[4.5]dec-3-en-2-one], for which the IC50 was found to be 314 nM at recombinant human ACC1; 196 nM in assay [1]; 10300 nM in assay [2]; 5040 nM in assay [3]; 98 nM in the assay with MCF7.
The corresponding values for `CC(C)[C@H]1CC[C@]2(CC1)NC(=O)C(c1cc(-c3ccc(Cl)cc3)ccc1Cl)=C2O` [1-141, (5s,8s)-3-(4,4′-Dichlorobiphenyl-3-yl)-4-hydroxy-8-isopropyl-1-azaspiro[4.5]dec-3-en-2-one] are 247 nM, 161 nM, 1380 nM, 625 nM and 79 nM.
The corresponding values for `CO[C@H]1CC[C@]2(CC1)NC(=O)C(c1cc(-c3ccc(F)c(F)c3)ccc1Cl)=C2O` [1-104, (5s,8s)-3-(4 Chloro-3′,4′-difluorobiphenyl-3-yl)-4-hydroxy-8-methoxy-1-azaspiro[4.5]dec-3-en-2-one] are 329 nM, 270 nM, > 20000 nM, 17900 nM and 455 nM.
On to `Cc1ccc(-c2ccc(Cl)cc2)c(C)c1C1=C(O)[C@]2(CC[C@H](C(F)(F)F)CC2)NC1=O` [1-95, (5s,8s)-3-(4′-Chloro-2,4-dimethylbiphenyl-3-yl)-4-hydroxy-8-(trifluoromethyl)-1-azaspiro[4.5]dec-3-en-2-one], for which the IC50 came to 378 nM on recombinant human ACC1; 383 nM in assay [1] (setting [4]); 2410 nM in assay [2]; 393 nM in assay [3]; 88 nM in the assay with MCF7.
For `CC1CCC2(CC1)NC(=O)C(c1cc(-c3ccc(Cl)cc3)ccc1Cl)=C2O` (stereo not shown) [1-139, 3-(4,4′-Dichlorobiphenyl-3-yl)-4-hydroxy-8-methyl-1-azaspiro[4.5]dec-3-en-2-one], the IC50 was 280 nM at recombinant human ACC1; 153 nM in assay [1]; 4550 nM in assay [2]; 605 nM in assay [3]; 70 nM in the assay on MCF7.
The corresponding values for `Cc1ccc(-c2ccc(Cl)c(F)c2)c(C)c1C1=C(O)[C@]2(CC[C@H](C(F)(F)F)CC2)NC1=O` [1-93, (5s,8s)-3-(4′-Chloro-3′-fluoro-2,4-dimethylbiphenyl-3-yl)-4-hydroxy-8-(trifluoromethyl)-1-azaspiro[4.5]dec-3-en-2-one] are 301 nM, 217 nM, 4010 nM, 876 nM and 78 nM.
As to `Cc1cc(F)c(-c2ccc(Cl)cc2)cc1C1=C(O)C2(CCC(C(F)(F)F)CC2)NC1=O` (mixture of isomers) [1-100, 3-(4′-Chloro-6-fluoro-4-methylbiphenyl-3-yl)-4-hydroxy-8-(trifluoromethyl)-1-azaspiro[4.5]dec-3-en-2-one], the IC50 at recombinant human ACC1 was found to be 91 nM; in assay [1], 96 nM; in assay [2], 2470 nM; in assay [3], 988 nM; with MCF7, 127 nM.
Consider `Cc1cc(F)c(-c2ccc(Cl)cc2)cc1C1=C(O)[C@]2(CC[C@](O)(C(F)(F)F)CC2)NC1=O` [1-127, (5r,8r)-3-(4′-Chloro-6-fluoro-4-methylbiphenyl-3-yl)-4,8-dihydroxy-8-(trifluoromethyl)-1-azaspiro[4.5]dec-3-en-2-one], for which the IC50 at recombinant human ACC1 was 216 nM; in assay [1] (setting [4]) it was 145 nM; in assay [2] it was 13400 nM; in assay [3], 4840 nM; with MCF7 it was 1400 nM.
`Cc1ccc(-c2ccc(F)c(F)c2)c(C)c1C1=C(O)[C@]2(CC[C@H](C(F)(F)F)CC2)NC1=O` [1-101, (5s,8s)-3-(3′,4′-Difluoro-2,4-dimethylbiphenyl-3-yl)-4-hydroxy-8-(trifluoromethyl)-1-azaspiro[4.5]dec-3-en-2-one]: the IC50 at recombinant human ACC1 stood at 460 nM; in assay [1], 650 nM; in assay [2] it was 10500 nM; in assay [3], 6070 nM; with MCF7 it was 272 nM.
With `Cc1ccc(-c2ccc(F)c(F)c2)cc1C1=C(O)[C@]2(CC[C@](O)(C(F)(F)F)CC2)NC1=O` [1-124, (5r,8r)-3-(3′,4′-Difluoro-4-methylbiphenyl-3-yl)-4,8-dihydroxy-8-(trifluoromethyl)-1-azaspiro[4.5]dec-3-en-2-one], the IC50 on recombinant human ACC1 is 458 nM; in assay [1] (setting [4]), 467 nM; in assay [2] it was > 20000 nM; in assay [3], > 20000 nM; with MCF7, 1700 nM.
Turning to `Cc1c(F)cc(-c2ccc(Cl)c(F)c2)cc1C1=C(O)[C@]2(CC[C@H](C(F)(F)F)CC2)NC1=O` [1-102, (5s,8s)-3-(4′-Chloro-3′,5-difluoro-4-methylbiphenyl-3-yl)-4-hydroxy-8-(trifluoromethyl)-1-azaspiro[4.5]dec-3-en-2-one], the IC50 at recombinant human ACC1 turned out to be 214 nM; in assay [1] it was 243 nM; in assay [2], 3820 nM; in assay [3] it was 2950 nM; in the assay on MCF7, 79 nM.
`Cc1ccc(-c2ccc(Cl)cc2)c(C)c1C1=C(O)[C@]2(CC[C@](O)(C(F)(F)F)CC2)NC1=O` [1-125, (5r,8r)-3-(4′-Chloro-2,4-dimethylbiphenyl-3-yl)-4,8-dihydroxy-8-(trifluoromethyl)-1-azaspiro[4.5]dec-3-en-2-one]: the IC50 was 281 nM at recombinant human ACC1; 217 nM in assay [1] (setting [4]); 6770 nM in assay [2]; 3990 nM in assay [3]; 322 nM with MCF7.
With `COC[C@H]1CC[C@]2(CC1)NC(=O)C(c1cc(-c3ccc(Cl)cc3)ccc1C)=C2O` [1-116, (5s,8s)-3-(4′-Chloro-4 methylbiphenyl-3-yl)-4-hydroxy-8-(methoxymethyl)-1-azaspiro[4.5]dec-3-en-2-one], the IC50 on recombinant human ACC1 came out at 232 nM; in assay [1] (setting [4]), 92 nM; in assay [2] it was 591 nM; in assay [3] it was 280 nM; with MCF7, 31 nM.
On to `CO[C@H]1CC[C@]2(CC1)NC(=O)C(c1cc(-c3ccc(Cl)cc3)cc(F)c1C)=C2O` [1-106, (5s,8s)-3-(4′-Chloro 5 fluoro 4-methylbiphenyl-3-yl)-4-hydroxy-8-methoxy-1-azaspiro[4.5]dec-3-en-2-one], for which the IC50 was determined as 439 nM at recombinant human ACC1; 207 nM in assay [1]; 5850 nM in assay [2]; 4360 nM in assay [3]; 155 nM in the assay with MCF7.
The like results for `CO[C@H]1CC[C@]2(CC1)NC(=O)C(c1cc(-c3ccc(Cl)cc3F)ccc1C)=C2O` [1-142, (5s,8s)-3-(4′-Chloro-2′-fluoro-4-methylbiphenyl-3-yl)-4-hydroxy-8-methoxy-1-azaspiro[4.5]dec-3-en-2-one] were, in that order, 337 nM, 704 nM, 957 nM, 551 nM and 106 nM.
